Each structure is given as a SMILES string. In brackets after ≈: the same amount, converted by molar mass.

Test [1] concerns Escherichia coli. Put plainly: Antibacterial activity against Escherichia coli RCMB 010052 after 24 hrs by twofold serial dilution technique. It counts as functional. To be noted: RCMB 010052, 24 h.
Test [2] deals with Escherichia coli. Put plainly: Antibacterial activity against Escherichia coli RCMB 010052 at 100 umol/ml after 24 hrs by well diffusion assay. It counts as functional.
For test [3], the system named is Streptococcus pneumoniae. Kind of test: Antibacterial activity against Streptococcus pneumoniae RCMB 010010 after 24 hrs by twofold serial dilution technique. It counts as functional. To be noted: RCMB 010010, 24 h.
For test [4], the system named is Salmonella typhimurium. Kind of test: Antibacterial activity against Salmonella typhimurium RCMB 010072 after 24 hrs by twofold serial dilution technique. Type of test: functional, Salmonella enterica subsp. enterica serovar Typhimurium. To be noted: Salmonella enterica, RCMB 010072, 24 h.
Test [5] has as its system Streptococcus pneumoniae. Put plainly: Antibacterial activity against Streptococcus pneumoniae RCMB 010010 at 100 umol/ml after 24 hrs by well diffusion assay. It counts as functional.
Test [6] has as its system Enterococcus faecalis. Put plainly: Antibacterial activity against Enterococcus faecalis RCMB 010068 after 24 hrs by twofold serial dilution technique. It counts as functional. The note with it: RCMB 010068, 24 h.
In test [7] the test system is Staphylococcus aureus. Put plainly: Antibacterial activity against Staphylococcus aureus RCMB 010028 after 24 hrs by twofold serial dilution technique. To be noted: RCMB 010028, 24 h. Type of test: functional.
In test [8] the test system is Enterococcus faecalis. Put plainly: Antibacterial activity against Enterococcus faecalis RCMB 010068 at 100 umol/ml after 24 hrs by well diffusion assay. Type of test: functional. (In agar diffusion tests the substance spreads into inoculated agar from a disc or well.)
Test [9] has as its system Staphylococcus aureus. Kind of test: Antibacterial activity against Staphylococcus aureus RCMB 010028 at 100 umol/ml after 24 hrs by well diffusion assay. It counts as functional.
Test [10] concerns Salmonella typhimurium. Put plainly: Antibacterial activity against Salmonella typhimurium RCMB 010072 at 100 umol/ml after 24 hrs by well diffusion assay. It counts as functional, Salmonella enterica subsp. enterica serovar Typhimurium.

For orientation: MIC means the least concentration at which growth counts as inhibited. As to `O=C(Cn1nc(-c2ccccc2)c2ccccc2c1=O)Nc1ccc(S(=O)(=O)Nc2ncccn2)cc1`, the MIC is 25 mM (≈ 12800 µg/mL) in [1]; 0.39 mM (≈ 200 µg/mL) in [3]; 6.25 mM (≈ 3200 µg/mL) in [4]; 1.56 mM (≈ 800 µg/mL) in [6]; 0.39 mM (≈ 200 µg/mL) in [7]. The “diameter of the inhibition zone (DIZ)” value in test [2] came to 16.1 mm; in test [5], 22.3 mm; in [8], 20.3 mm; in test [9], 22.3 mm; in [10], 18.2 mm.

For the molecule `NS(=O)(=O)c1ccc(NC(=O)Cn2nc(-c3ccccc3)c3ccccc3c2=O)cc1`, the MIC was 12.5 mM (≈ 5430 µg/mL) in test [1]; 12.5 mM (≈ 5430 µg/mL) in test [3]; 12.5 mM (≈ 5430 µg/mL) in test [4]; 25 mM (≈ 10900 µg/mL) in test [6]; 1.56 mM (≈ 678 µg/mL) in test [7]. For the same molecule, the “diameter of the inhibition zone (DIZ)” value amounted to 16.8 mm in test [2]; 16.8 mm in test [5]; 15.9 mm in [8]; 19.4 mm in test [9]; 16.9 mm in test [10].

As for `NS(=O)(=O)c1ccc(NC(=O)Cn2nc(Cc3ccccc3)c3ccccc3c2=O)cc1`, the MIC in [1] is 6.25 mM (≈ 2800 µg/mL); in test [3], 25 mM (≈ 11200 µg/mL); in test [4], 3.12 mM (≈ 1400 µg/mL); in test [6], 50 mM (≈ 22400 µg/mL); in [7], 0.78 mM (≈ 350 µg/mL). Besides, the “diameter of the inhibition zone (DIZ)” value in [2] came out at 17.6 mm; in [5], 16.2 mm; in test [8], 15.3 mm; in [9] it was 21 mm; in test [10], 18.24 mm.

On to `COc1ccc(Cc2nn(CC(=O)Nc3ccc(S(N)(=O)=O)cc3)c(=O)c3ccccc23)cc1`, for which the MIC was 3.12 mM (≈ 1490 µg/mL) in test [1]; 6.25 mM (≈ 2990 µg/mL) in test [3]; 1.56 mM (≈ 747 µg/mL) in test [4]; 25 mM (≈ 12000 µg/mL) in [6]; 0.39 mM (≈ 187 µg/mL) in [7]. The “diameter of the inhibition zone (DIZ)” value in test [2] is given as 19.6 mm; in test [5], 18.2 mm; in test [8], 16.2 mm; in test [9], 22 mm; in test [10], 20 mm.

As to `COc1ccc(Cc2nn(CCC(=O)Nc3ccc(S(N)(=O)=O)cc3)c(=O)c3ccccc23)cc1`, the minimum inhibitory concentration (MIC) came to 3.12 mM (≈ 1540 µg/mL) in [1]; 6.25 mM (≈ 3080 µg/mL) in [3]; 1.56 mM (≈ 768 µg/mL) in test [4]; 12.5 mM (≈ 6160 µg/mL) in test [6]; 0.39 mM (≈ 192 µg/mL) in test [7]. Further, the “diameter of the inhibition zone (DIZ)” value was 19.9 mm in [2]; 18.3 mm in test [5]; 16.7 mm in test [8]; 22.3 mm in test [9]; 21 mm in [10].

Consider `O=C(Cn1nc(-c2ccccc2)c2ccccc2c1=O)Nc1ccc(S(=O)(=O)Nc2nccs2)cc1`, for which the MIC in test [1] is 25 mM (≈ 12900 µg/mL); in test [3], 1.56 mM (≈ 807 µg/mL); in test [4], 0.78 mM (≈ 404 µg/mL); in [6], 25 mM (≈ 12900 µg/mL); in [7], 12.5 mM (≈ 6470 µg/mL). Further, the “diameter of the inhibition zone (DIZ)” value in [2] stood at 16.3 mm; in test [5], 20.3 mm; in [8] it was 17 mm; in test [9], 18.3 mm; in test [10], 21 mm.

As to `O=C(Cn1nc(-c2ccc(Cl)cc2)c2ccccc2c1=O)Nc1ccc(S(=O)(=O)Nc2nccs2)cc1`, the MIC in test [1] was determined as 0.39 mM (≈ 215 µg/mL); in test [3], 1.56 mM (≈ 861 µg/mL); in [4], 0.78 mM (≈ 431 µg/mL); in [6], 25 mM (≈ 13800 µg/mL); in test [7] it was 3.12 mM (≈ 1720 µg/mL). Further, the “diameter of the inhibition zone (DIZ)” value in [2] came out at 22.2 mm; in test [5], 20.2 mm; in test [8] it was 17.2 mm; in test [9] it was 19.9 mm; in test [10], 21.4 mm.

Regarding `COc1ccc(Cc2nn(CC(=O)Nc3ccc(S(=O)(=O)Nc4ncccn4)cc3)c(=O)c3ccccc23)cc1`, the MIC in [1] stood at 25 mM (≈ 13900 µg/mL); in [3] it was 25 mM (≈ 13900 µg/mL); in test [4], 3.12 mM (≈ 1740 µg/mL); in test [6], 50 mM (≈ 27800 µg/mL); in test [7], 6.25 mM (≈ 3480 µg/mL). Besides, the “diameter of the inhibition zone (DIZ)” value in [2] is given as 16.9 mm; in test [5], 16.3 mm; in test [8], 15.2 mm; in [9], 18.6 mm; in test [10] it was 19.3 mm.

For the molecule `COc1ccc(Cc2nn(CCC(=O)Nc3ccc(S(=O)(=O)Nc4ncccn4)cc3)c(=O)c3ccccc23)cc1`, the MIC in test [1] came out at 50 mM (≈ 28500 µg/mL); in test [3] it was 50 mM (≈ 28500 µg/mL); in test [4], 25 mM (≈ 14300 µg/mL); in test [6], 25 mM (≈ 14300 µg/mL); in [7] it was 3.12 mM (≈ 1780 µg/mL). Also, the “diameter of the inhibition zone (DIZ)” value in test [2] turned out to be 16.2 mm; in [5], 15.7 mm; in [8], 17.2 mm; in test [9], 19.8 mm; in test [10], 17.4 mm.

For the molecule `Nc1ccc(S(=O)(=O)Nc2ncccn2)cc1` [SULFADIAZINE], the MIC in [1] was determined as 100 mM (≈ 25000 µg/mL); in [3], 100 mM (≈ 25000 µg/mL); in [4] it was 50 mM (≈ 12500 µg/mL); in test [6], 100 mM (≈ 25000 µg/mL); in [7], 6.25 mM (≈ 1560 µg/mL). Moreover, the “diameter of the inhibition zone (DIZ)” value is 14.2 mm in test [2]; 14.2 mm in test [5]; 13.7 mm in test [8]; 18.3 mm in [9]; 15 mm in test [10].

In the case of `Nc1ccc(S(N)(=O)=O)cc1` [SULFANILAMIDE], the MIC in test [1] worked out at 25 mM (≈ 4310 µg/mL); in test [3], 25 mM (≈ 4310 µg/mL); in test [4], 100 mM (≈ 17200 µg/mL); in [6] it was 100 mM (≈ 17200 µg/mL); in [7], 12.5 mM (≈ 2150 µg/mL). For the same molecule, the “diameter of the inhibition zone (DIZ)” value worked out at 15.8 mm in test [2]; 15.8 mm in test [5]; 14.2 mm in test [8]; 16.8 mm in test [9]; 14.2 mm in test [10].

`Nc1ccc(S(=O)(=O)Nc2nccs2)cc1` [SULFATHIAZOLE]: the MIC in [1] turned out to be 100 mM (≈ 25500 µg/mL); in test [3], 25 mM (≈ 6380 µg/mL); in test [4], 12.5 mM (≈ 3190 µg/mL); in test [6], 50 mM (≈ 12800 µg/mL); in [7] it was 50 mM (≈ 12800 µg/mL). In addition, the “diameter of the inhibition zone (DIZ)” value in [2] is listed as 13.8 mm; in test [5], 15.8 mm; in test [8], 14.9 mm; in test [9], 15 mm; in test [10], 17.2 mm.
